Test [1] has as its system Steinernema siamkayai. The experiment in a line: Steinernema siamkayai reproduction and development on lipid agar plates with hexapeptides. Type of test: in vivo. Details: key to Infective juveniles / Adults: counts per plate, scaled from 0.05 ml subsamples to 20 ml. The following applies: for Infective juveniles / Adults: S3 Table 2. The source says:
(§1) The attempt was made here to replicate prior fecundity work in another species of nematode, the entomopathogenic (insect slaying) Steinernema siamkayai. Species confirmation involved standard morphological and molecular techniques (S3 File, Nematodes). S. siamkayai is a biocontrol agent of potential economic significance in global agriculture, reducing the need for pesticides. Crucial for deployment is the production of ‘infective juveniles’. These forms penetrate the larvae of insect pests, releasing a bacterium, Xenorhabdus spp., which ultimately kills the larvae. Stock solutions (5 mg mL^-1) of EPL036 (IEPVFT) and EPL630 (KLKMNG) were made up and stored at −20 °C. Lipid Agar plates were prepared by pouring 5 ml media in 60 mm plastic Petri dishes. The plates were inoculated with an overnight-grown bacterial culture of Xenorhabdus spp. (10^9 cfu/ml) at 100 μl/plate and incubated at 28 °C for 24h. Xenorhabdus bacteria are symbiotically associated with S. siamkayai. While multiplying, Xenorhabdus metabolises the constituents of the lipid agar and the resulting by-products are the food supplement for the nematodes that triggers the worms to grow and multiply. From the stock solutions, peptides were introduced individually into the centre of the Lipid Agar plates with Xenorhabdus lawn. Two concentrations of peptide were used, 4 and 8 μL of the 5 mg mL^-1 stock peptide solutions (making 20 and 40 μg of peptide per plate in total, respectively, i.e. ~6 and ~12 μM). Each peptide solution was uniformly spread using an L shaped spreader and allowed to absorb into the agar plate for 10 minutes. Nematodes were harvested beforehand as follows. Third-stage infective juveniles (IJs) of S. siamkayai were used to infect fourth instar Galleria larvae. Following larval death, the Galleria cadavers were placed on a White’s Trap to harvest fresh progeny within 5–6 days. After storage in sterile water, these new-generation IJs were concentrated and inoculated on the bacterial plates on Day 1 at 500 and 1000 IJs /plate. The eight treatments (two inocula at two peptide concentrations) and two controls (two inocula without peptides) were replicated (x3) and incubated at 28 °C. Observations of behaviour and morphology were made at intervals throughout the study, then on Day 5 (i.e. after 4 units of 24h) the nematodes were harvested. Two ml of distilled water was poured on each Petri dish and gently stirred to release the nematodes from the surface. The surface washings containing suspended nematodes were collected in a standard volume of 20 ml of distilled water. The number of mature adults (male and female) and the second-generation juveniles (J1, J2, J3 and pre-adults) were counted using a dissecting microscope (x10 magnification, 4 fields) in 0.05 ml subsamples (x3) and multiplied up to the standard volume of 20 ml.
Fig 2 Developmental impact on Steinernema siamkayai of hexapeptides after 4 days. INOCULUM = founding population of infective juveniles (IJs). ‘Infective juveniles’ on the vertical axis are mostly second-generation IJs. Peptides applied at the start of the study were EPL036 = IEPVFT, […] = KLKMNG. Total = Adults + Infective juveniles. Data are mean +/- SEM (average of 3 replicates). Statistical analysis: ANOVA. Control bars are doubly represented for ease of comparison. Note different vertical axes. […]

The subject of test [2] is Steinernema siamkayai. The experiment in a line: Nematode pilot study fecundity (S3 Table 1). Type of test: in vivo. Conditions: inoculum 5 IJs.
Source text: as §1
Mean number of A) Infective juveniles and B) Adults following inoculation of Petri dishes treated with EPL036 and EPL630 at 4 µL and 8 µL and an untreated control; Petri dishes were initially inoculated with 5 infective juveniles of Steinernema siamkayai following the method used in the main manuscript (Single way ANOVA presented beneath each data set).

Test [3] deals with rat bone marrow cells. As to the kind of experiment: Bone marrow cell assay, time-lapse cell counts over 24h. Type of test: cell-based. As for the experimental part: The method has been described previously at length. Bone marrow cells, consisting of various cell types including mesenchymal stem cells and fibroblasts, were cultured from adult male rats (Rattus norvegicus, SD strain). These cells were passaged from a growing primary stock in a T75 tissue culture flask (Sarstedt) into a 48 well tissue culture plate (IWAKI), with a cell density of 1 x 10^5/ml. The cell culture media, henceforth referred to as ‘supplemented a-MEMS,’ comprised α-MEMS media supplemented with 10% FCS and 1% penicillin/streptomycin (all Life Technologies, Carlsbad, CA, US). On the day of peptide addition to the cells, the supplemented α-MEMS was gently removed and fresh supplemented α-MEMS added, with 10% test material by volume to achieve micromolar concentrations, untreated controls receiving just fresh supplemented α-MEMS. (For dose levels see legends in respective result figures) All samples were filter sterilised using a Millex-GV […] syringe filter unit (Merck, Kenilworth, NJ, USA). The cells were imaged for 24 h using an incubated Zeiss Axiovert 135M microscope with a Prior Proscan II motorised stage, at 37 °C with a 5% CO2 in air feed. Each well of the 48-well tissue culture plate was then imaged for 24h every 5 min using Metamorph software (MDS Analytical Technologies, Wokingham, UK), with each well having four fields of view. The viability and cell numbers were reviewed by analysing the images captured over the 24h period and cell counts were taken at selected time points using the Metamorph software.
Fig 6 Bone marrow cells in culture exposed to long peptides. Cells were counted over 24h after exposure to the 14mer peptide EPL001 or its scrambled-sequence control EPL030 at 6μM final concentration or to the 20mer EPL120 at 5μM final concentration, compared to peptide-untreated controls.
Fig 7 Bone marrow cells in culture exposed to hexapeptides. Cells were counted over 24h after exposure to either EPL016 (= MKPLTG, the ‘Front 6’ of the 14mer EPL001) or EPL036 (= IEPVFT, the ‘Back 6’ of EPL030, the scrambled-sequence control of EPL001) at 1μM final concentration, compared to peptide-untreated controls.

For test [4], the system named is Caenorhabditis elegans. The following applies: cited from earlier work. The source says:
As a control compound there was synthesized EPL030, having the aa sequence KLKMNGKNIEPVFT. This is a scrambling of EPL001’s sequence, based on cards drawn at random by one of us (CRM). […] The figures for fecundity were EPL001 +43 ... || Returning to EPL030, the scrambled-sequence EPL001 comparator, this has engendered perplexity by displaying the same activity as EPL001 across multiple mammalian systems. Thus, EPL030 suppressed human prostate cancer cells in vitro more than EPL001 in two laboratories and the proliferation of rat bone marrow cells in vitro in a third.

In test [5] the test system is PC3 cells. The experiment in a line: MTS colorimetric viable cell assay, PC3. Type of test: cell-based, human. Conditions: for Difference in percentage terms between control and test OD means: PC3, 30 μM, 27h, MTS, 492 nm, triplicate. As for the experimental part:
(§2) Assays involving a range of peptides from 14mer down to 6mers assessed total viable PC3 or PNT2 cells using a 96-well plate MTS colorimetric assay (CellTiter 96 Aqueous One Solution Cell Proliferation Assay, Promega, Southampton, UK), with absorbance measured at 492 nm. Cells were seeded at 8,000 per well and grown for 27h. Peptides were administered at the outset to a final concentration of 30 μM (in 2 μl) to samples in triplicate. (A higher dosage was used than in the 14mer peptides study to shorten the timecourse of response.) Controls received buffer. Data are OD mean +/ − SEM, with statistical analysis by two tailed t-test. A time course study of the 14mers on PC3s, using the same technique, involved measurements at 24h and 48h.
(§3) Fig 5 Effects of a range of peptides on human prostate cancer cell growth in vitro. Assays involved a range of peptides from 14mers down to 6mers (Table 1), with viable cells assessed using a 96-well plate MTS colorimetric assay. Absorbance measured at 492 nm. Cells were seeded at 8,000 per well and grown for 27h. Peptides were administered at the outset to a final concentration of 30 μM (in 2 μl) to samples in triplicate. Controls received buffer. Data are OD mean +/- SEM, with statistical analysis by two tailed t-test. * p<0.05; **p<0.025.

Test [6] has as its system PNT2 cells. The experiment in a line: MTS colorimetric viable cell assay, PNT2. Type of test: cell-based, human. Conditions: 30 μM, 27h, 492 nm, triplicate. As for the experimental part:
as §2, §3

The test system of test [7] is DU145 cells. As to the kind of experiment: MTS viable cell assay, DU145 (Epistem). Type of test: cell-based, human. Conditions: DU145, 72h. Here is the method: Further assays on human prostate cancer cells were conducted at a contract research organisation (Epistem, Manchester, UK). LNCaP or DU145 cells seeded at 3,000 cells/well across a 96-well plate were cultured in RPMI (phenol red free), 10% FCS, 1% sodium pyruvate, Pen/strep and L-glutamine for 24h before exposure to peptides, at a single dose level in the case of LNCaPs or multiple dose levels in the case of DU145s. (For dose levels see Results.) Controls received vehicle (1% PBS). For the DU145s peptide administration was repeated after 24h. 72h after the first administration (DU145s) or only administration (LNCaP) total viable cell numbers were measured colorimetrically (MTS) using a CellTiter 96 AQueous One Solution Cell Proliferation Assay (Promega, Southampton, UK), following manufacturer’s instructions. Briefly, the media on the plates was replaced with the CellTiter reagent diluted 1:5 in DMEM. The plates were returned to the incubator for 3 hours before reading absorbance at 492 nm on a FLUORstar OPTIMA (BMG Labtech). CellTiter data are the absorbance minus background values (CellTiter plus DMEM), expressed as (OD mean +/− SEM). Statistical analysis was by ANOVA, Dunnett’s multiple comparisons test.

[8] abbreviates: 4 µL, inoculum 1000, mean of 3 reps.
The mark [9] stands for this setting: 8 µL, inoculum 1000, mean of 3 reps.

In the case of IEPVFT [EPL036, IEPVFT, EPL030 Back 6], the Infective juveniles came to 7482 in test [1] (4 µL, inoculum 500, mean of 3 reps); 13686 in test [1] (setting [8]); 9644 in test [1] (8 µL, inoculum 500, mean of 3 reps); 19161 in test [1] (setting [9]); 19141 in test [1] (8 µL, inoculum 1000, rep 1); 19149 in test [1] (8 µL, inoculum 1000, rep 2). The Infective juveniles in test [1] (8 µL, inoculum 1000, rep 3) came out at 19193; in test [2] (4 µL, mean of 9 reps) it was 43.2; in test [2] (8 µL, mean of 9 reps), 75.8. Moreover, the Adults in test [1] (setting [8]) stood at 446; in test [1] (setting [9]), 10; in test [2] (4 µL, mean of 9 reps), 1.7; in test [2] (4 µL, rep 1), 1; in test [2] (4 µL, rep 2) it was 1; in test [2] (4 µL, rep 3), 2. For the same substance, the Adults in test [2] (4 µL, rep 4) was 1; in test [2] (4 µL, rep 5), 2; in test [2] (4 µL, rep 6) it was 2; in test [2] (4 µL, rep 7) it was 2; in test [2] (4 µL, rep 8) it was 2; in test [2] (4 µL, rep 9), 2. Also, the Adults is on record as 0 in test [2] (8 µL, mean of 9 reps); 0 in test [2] (8 µL, rep 1); 0 in test [2] (8 µL, rep 2); 0 in test [2] (8 µL, rep 3); 0 in test [2] (8 µL, rep 4); 0 in test [2] (8 µL, rep 5). In addition, the Adults came to 0 in test [2] (8 µL, rep 6); 0 in test [2] (8 µL, rep 7); 0 in test [2] (8 µL, rep 8); 0 in test [2] (8 µL, rep 9). Also, the “Egg production in females” value in test [1] (compared with untreated controls, 48h exposure (Fig 3)) is listed as “visibly bloated with eggs”. For the same substance, the “Time after incubation to fully grown males and females” value in test [1] (observational) is on record as 36 h. For the same substance, in test [1] (observational), the “Time for infective juveniles to transform into pre-adults” value is no more than 24 h. For the same substance, the “Effect on bone marrow cells in culture” value in test [3] (1μM final concentration, in words (Fig 7)) is on record as “cytostatic”. The “Increase in cumulative offspring vs untreated controls” value in test [4] is listed as “+79%”.

On to MKPLTG [EPL016, MKPLTG, EPL001 Front 6], for which the “Reduction of the population of rat bone marrow cells” value in test [3] (1μM in the medium, controls increased by about the same percentage) is reported as 18%. Also, the “Increase in cumulative offspring vs untreated controls” value in test [4] was 50%.

Regarding “MLKTGEKPNFKNNI [EPL141, Human version of EPL143, with sheep V replaced by human N9]”, the figures for the “Difference in percentage terms between control and test OD means” value in test [5] and in test [6] were −22.6% and −27.9%, respectively. Further, the “Mean OD as % of the EPL001 mean” value in test [5] (PC3 time course study, 24h) was 56%.

“MLKTGEKPV [EPL901, first 9 aa of EPL143, from sSgII’s second sorting domain]”: the entries for the “Difference in percentage terms between control and test OD means” value in test [5] and in test [6] were −21.2% and −28.9%, respectively.

Turning to “MLKTGEKPVFKNNI [EPL143, Contiguous form of sSgII-14, an anagram of EPL001; benchmark for chi-squared test]”, the “Difference in percentage terms between control and test OD means” value in test [5] is recorded as −10.2%; in test [6] it was −20.6%. For the same substance, the “Test mean OD vs control mean” value in test [7] (0.15 μM) is given as −4.3%; in test [7] (150 μM (highest concentration)), −18.7%.

The record behind these values is publication PMC9714824, “Hexapeptides from mammalian inhibitory hormone hunt activate and inactivate nematode reproduction” (PLOS ONE, 2022).
